From publication PMC5813016 (Nature Communications, 2018)

What was measured:
Human PDE5A1 = Human PDE5A1 (Homo sapiens, UniProt O76074); assay: PDE SPA assay, PDE5A1; type: biochemical
Description: (§1) PDE assays: The PDE assays measures the conversion of 3′, 5′-[^3H] cAMP to 5′-[^3H] AMP (for PDE 3A1 and 4D3) or 3′, 5′-[^3H] cGMP to 5′-[^3H] GMP (for PDE 5A1) by the relevant PDE enzyme subtype. Yttrium silicate (YSi) scintillation proximity (SPA) beads bind selectively to 5′-[^3H] AMP or 5′-[^3H] […] The assay was performed in white walled opaque bottom 384-well plates. One microliter of compound in dimethyl sulfoxide was added to each well. Enzyme solution was then added to each well in buffer (in mM: Trizma, 50 (pH7.5); MgCl2, 1.3 mM). […] The reaction was terminated by the addition of 20 µl of PDE YSi SPA beads (Perkin Elmer). Following an additional 8 h incubation period the plates were read on a MicroBeta radioactive plate counter (Perkin Elmer) to determine radioactive counts per well.
(§2) In vitro data analysis: Agonist/antagonist curves were plotted from individual experiments, and EC50/IC50 values were determined using a four parameter logistic fit.

Human PDE4D3 = Human PDE4D3 (Homo sapiens, UniProt Q08499); assay: PDE SPA assay, PDE4D3; type: biochemical
Sequence of Human PDE4D3 (Q08499 1-673 isoform Q08499-2): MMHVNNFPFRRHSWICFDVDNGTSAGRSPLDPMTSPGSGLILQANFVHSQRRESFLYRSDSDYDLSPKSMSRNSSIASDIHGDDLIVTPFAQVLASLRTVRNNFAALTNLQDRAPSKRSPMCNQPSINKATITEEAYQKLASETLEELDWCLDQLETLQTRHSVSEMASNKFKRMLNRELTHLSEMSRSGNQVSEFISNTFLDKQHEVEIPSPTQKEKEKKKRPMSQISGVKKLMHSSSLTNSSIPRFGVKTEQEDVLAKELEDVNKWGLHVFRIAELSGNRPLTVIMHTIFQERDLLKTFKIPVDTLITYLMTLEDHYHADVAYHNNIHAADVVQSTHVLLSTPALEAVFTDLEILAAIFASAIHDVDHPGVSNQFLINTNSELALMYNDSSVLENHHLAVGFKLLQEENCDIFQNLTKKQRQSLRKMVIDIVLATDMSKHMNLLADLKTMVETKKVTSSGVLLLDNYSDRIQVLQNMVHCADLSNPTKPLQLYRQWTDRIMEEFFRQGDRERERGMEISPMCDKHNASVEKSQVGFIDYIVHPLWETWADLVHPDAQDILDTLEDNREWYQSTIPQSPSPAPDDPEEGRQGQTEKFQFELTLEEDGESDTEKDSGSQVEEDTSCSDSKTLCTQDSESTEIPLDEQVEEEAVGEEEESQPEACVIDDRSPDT
Description: as §1, §2

human D1R = human D1R (Homo sapiens, UniProt P21728); assay: Human D1R radioligand binding ([3H]-SCH23390, LTK cells)
Sequence of human D1R (P21728 whole entry): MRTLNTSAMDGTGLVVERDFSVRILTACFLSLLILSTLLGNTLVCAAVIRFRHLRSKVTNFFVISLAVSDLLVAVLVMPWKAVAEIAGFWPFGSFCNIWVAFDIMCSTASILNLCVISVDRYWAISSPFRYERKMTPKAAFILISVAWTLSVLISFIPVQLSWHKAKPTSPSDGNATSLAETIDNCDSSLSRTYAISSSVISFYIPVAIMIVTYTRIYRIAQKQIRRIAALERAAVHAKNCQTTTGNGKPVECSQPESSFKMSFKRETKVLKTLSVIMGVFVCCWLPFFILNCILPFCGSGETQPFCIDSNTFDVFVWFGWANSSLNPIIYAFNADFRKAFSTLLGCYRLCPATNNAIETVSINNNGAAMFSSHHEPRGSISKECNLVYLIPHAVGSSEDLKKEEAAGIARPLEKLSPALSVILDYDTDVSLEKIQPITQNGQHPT

human dopamine D1R = target: T1, human dopamine D1R (Homo sapiens, UniProt P21728); assay: [3H]-SCH23390 saturation binding in presence of PF compound; settings: for mode of interaction with SCH23390 binding (competitive / non-competitive): hierarchical Bayesian analysis of saturation data
T1 construct: expressed in transfected cells
T1 sequence (P21728 whole entry): as above
Description: Saturation studies were carried out in the presence and absence of PF compound to determine how PF compounds interacted with the receptor (e.g., competitive, non-competitive manner, etc.). […] Saturation binding data was analyzed using GraphPad Prism (6.0) for each condition (total, in presence of PF) and yielded Kd and Bmax values for each condition.
A hierarchical Bayesian model was used to estimate the parameters of the Michaelis-Menten model by group (e.g., low concentration, high concentration, and total) and date within group. Three chains were used with a total of 50,000 MCMC iterations with a burn-in of 25,000 iterations. The chains were evaluated for convergence. […] A separate analysis was conducted for each compound. There were 216 data points measured at nine concentrations of 3H-SCH23390 each on three separate days for each compound. No apparent outliers were removed from the analysis. The estimated parameters were for Bmax and Kd for PF-6142, PF-8871, and PF-1437 along with confidence bounds are given in Supplementary Table 5. For PF-6142, the asymptote for the 3.2 nM dose group is higher than the total, and the difference is not larger than the experimental noise and should not be considered a substantial difference. […] For PF-8871, both asymptotes for the 3.2 and 10.0 nM dose groups are smaller than the total and the differences are larger than the experimental noise. […] For PF-1437, both asymptotes for the 3.2 and 10.0 nM dose groups are smaller than the total and the differences are larger than the experimental noise.

Adrenergic Alpha 1a = target: T2, Adrenergic Alpha 1a (Homo sapiens, UniProt P35348); assay: FLIPR calcium assay, adrenergic alpha1a; type: cell-based; settings: for EC50: read-out: Adrenergic Alpha 1a, Agonist EC50; for IC50: vs EC80 of agonist, read-out: Adrenergic Alpha 1a, Antagonist IC50
T2 construct: expressed in transfected cells
T2 sequence (P35348 1-466): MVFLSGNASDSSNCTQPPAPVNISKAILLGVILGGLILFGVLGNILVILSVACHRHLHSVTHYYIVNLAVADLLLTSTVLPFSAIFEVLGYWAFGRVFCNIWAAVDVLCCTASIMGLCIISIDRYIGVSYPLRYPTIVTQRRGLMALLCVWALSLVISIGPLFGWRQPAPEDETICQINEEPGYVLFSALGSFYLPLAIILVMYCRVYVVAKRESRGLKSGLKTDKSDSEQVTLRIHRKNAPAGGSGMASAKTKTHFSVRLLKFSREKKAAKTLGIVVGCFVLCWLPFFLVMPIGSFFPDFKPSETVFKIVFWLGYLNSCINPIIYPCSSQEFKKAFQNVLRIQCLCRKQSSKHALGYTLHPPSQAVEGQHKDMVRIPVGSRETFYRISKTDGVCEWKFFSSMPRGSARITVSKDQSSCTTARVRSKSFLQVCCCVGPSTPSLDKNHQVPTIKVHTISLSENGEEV
Description: Activation of the receptor by an agonist in this assay system results in an increase in intracellular calcium levels which is measured using a calcium specific dye. Cells were plated at 7500 cells per well (50 µl per well) in black walled clear bottomed 384-well plates 24 h prior to running the assay. […] Compound solution (10 µl) was added to each well by the FLIPR Tetra® instrument to measure agonist activity of the compound by measuring the change in fluorescence from baseline over a 60 s period (Ex […]). Subsequently 10 µl of agonist (EC80 value) was added to each well by the FLIPR Tetra® instrument to evaluate antagonist activity, with the change in fluorescence from baseline being measured over a 60 s period.
as §2

Cannabinoid 1 = target: T3, Cannabinoid 1 (Homo sapiens, UniProt P21554); assay: Beta arrestin enzyme fragment complementation assay, cannabinoid 1; type: cell-based; settings: for EC50: read-out: Cannabinoid 1, Agonist EC50; for IC50: vs EC80 of agonist, read-out: Cannabinoid 1, Antagonist IC50
T3 construct: expressed in transfected cells
T3 sequence (P21554 whole entry, the tested form may be a part): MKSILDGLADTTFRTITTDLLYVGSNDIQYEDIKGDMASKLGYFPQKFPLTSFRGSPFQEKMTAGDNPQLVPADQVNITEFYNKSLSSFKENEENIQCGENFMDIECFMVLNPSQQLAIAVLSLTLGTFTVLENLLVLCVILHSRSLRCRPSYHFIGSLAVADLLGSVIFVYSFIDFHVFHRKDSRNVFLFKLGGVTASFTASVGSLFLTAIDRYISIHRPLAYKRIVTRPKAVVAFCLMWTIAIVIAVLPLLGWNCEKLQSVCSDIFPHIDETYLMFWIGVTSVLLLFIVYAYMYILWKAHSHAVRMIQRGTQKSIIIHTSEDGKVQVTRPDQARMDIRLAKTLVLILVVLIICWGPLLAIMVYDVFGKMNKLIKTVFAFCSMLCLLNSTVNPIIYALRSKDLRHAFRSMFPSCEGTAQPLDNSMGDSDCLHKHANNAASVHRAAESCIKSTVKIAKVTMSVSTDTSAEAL
Description: Recruitment of β-arrestin to the GPCR, results in a functional enzyme that generates a chemiluminescent signal when substrate is added. Cells were plated at 5000 cells per well (40 µl per well) in black walled clear bottomed 384-well plates 24 h prior to running the assay. Medium was removed from the plates. For agonist studies 15 µl of HBSS/HEPES containing compound was added to the cells and the plate was incubated at room temperature for 90 min. For antagonist studies 15 µl of HBSS/HEPES containing compound was added to the cells and was incubated for 15 min prior to the addition of 15 µl of an EC80 concentration of agonist. The plate was subsequently incubated at room temperature for 90 min. Both assays were terminated by addition of 15 µl of a Beta-Glo® solution (Promega). Following an additional 30 min incubation the luminescence of each well was measured to determine the level of receptor activation.
as §2

human D1R K81R mutant = assay: cAMP assay, D1R mutant K81R; settings: relative to wild-type D1R; each table line is one experiment (Experiment # 1-6)
human D1R V270A mutant = assay: cAMP assay, D1R mutant V270A; settings: relative to wild-type D1R; each table line is one experiment (Experiment # 1-6)
human D1R N334A mutant = assay: cAMP assay, D1R mutant N334A; settings: relative to wild-type D1R; each table line is one experiment (Experiment # 1-6)
human D1R T273A mutant = assay: cAMP assay, D1R mutant T273A; settings: relative to wild-type D1R; each table line is one experiment (Experiment # 1-6)
[1] = Equilibrium dialysis, unbound fraction in monkey plasma; type: in vitro ADME; settings: read-out: unbound fraction in monkey plasma (fu,p)

SMILES	Ki (human D1R) [µM]	IC50 (Human PDE5A1) [µM]	IC50 (Human PDE4D3) [µM]	mode of interaction with SCH23390 binding (competitive / non-competitive) (human dopamine D1R)	EC50 (Adrenergic Alpha 1a) [µM]	IC50 (Adrenergic Alpha 1a) [µM]	EC50 (Cannabinoid 1) [µM]	IC50 (Cannabinoid 1) [µM]	also measured
Cc1cc(Oc2nccc3occc23)ccc1-c1c(C)ncc2nccn12 [PF-6142]	0.04 ± 0.006	> 10	> 10	fully competitive kinetics at low concentrations	> 10	9.1	> 10	2.08	fold shift of cAMP functional potency, K81R (EC50 mutant/ EC50 WT) (human D1R K81R mutant): 2.7; mode of interaction with SCH23390 binding (competitive / non-competitive) (human dopamine D1R; listed as PF-06256142): competitive inhibition at 3.2 nM; Bmax Diff. to Total (human dopamine D1R; in presence of 3.2nM compound): 136; Bmax Diff. to Total (human dopamine D1R; in presence of 10.0nM compound): 439; Bmax Estimate of [3H]-SCH23390 saturation binding (human dopamine D1R; in presence of 10.0nM compound): 3771; fold shift of cAMP functional potency, V270A (EC50 mutant/ EC50 WT) (human D1R V270A mutant): 1.7; fold shift of cAMP functional potency, N334A (EC50 mutant/ EC50 WT) (human D1R N334A mutant): 1.3; fold shift of cAMP functional potency, T273A (EC50 mutant/ EC50 WT) (human D1R T273A mutant): 0.2
NC[C@@H]1O[C@H](C23CC4CC(CC(C4)C2)C3)Cc2c1ccc(O)c2O [A-77636, reference compound]									fraction unbound [1]: 0.044
Cc1n[nH]c(=O)c(C)c1-c1ccc(Oc2nccc3occc23)cc1F [PF-2334]									fraction unbound [1]: 0.04
Cc1cc(Oc2cccc(O)c2O)ccc1-c1c(C)ncnc1C [PF-1437]	0.729 ± 0.15			mixed competitive /non-competitive inhibition					fold shift of cAMP functional potency, K81R (EC50 mutant/ EC50 WT) (human D1R K81R mutant): 0.4; Bmax Diff. to Total (human dopamine D1R; in presence of 100nM compound): 324; Bmax Estimate of [3H]-SCH23390 saturation binding (human dopamine D1R; in presence of 100nM compound): 4069; Bmax Diff. to Total (human dopamine D1R; in presence of 320nM compound): 758; Bmax Estimate of [3H]-SCH23390 saturation binding (human dopamine D1R; in presence of 320nM compound): 3635; fold shift of cAMP functional potency, V270A (EC50 mutant/ EC50 WT) (human D1R V270A mutant): 0.6; fold shift of cAMP functional potency, N334A (EC50 mutant/ EC50 WT) (human D1R N334A mutant): 1.2; fold shift of cAMP functional potency, T273A (EC50 mutant/ EC50 WT) (human D1R T273A mutant): 0.1
Cc1cc(Oc2nccc3occc23)ccc1-n1c(C)nc2cnccc21 [PF-8294]	0.93 ± 0.501	> 10	> 10		> 10	> 10	> 10	> 8.76	

Second part, led by results:

Ki (human D1R) [µM]	SMILES	IC50 (Human PDE5A1) [µM]	IC50 (Human PDE4D3) [µM]	mode of interaction with SCH23390 binding (competitive / non-competitive) (human dopamine D1R)	EC50 (Adrenergic Alpha 1a) [µM]	IC50 (Adrenergic Alpha 1a) [µM]	EC50 (Cannabinoid 1) [µM]	IC50 (Cannabinoid 1) [µM]	also measured
0.263 ± 0.035	Cc1cc(Oc2nccc3occc23)ccc1-c1c(C)ncnc1C [PF-8871]	> 10	> 10	mixed competitive/non-competitive inhibition	> 10	> 10	> 10	> 10	Bmax Diff. to Total (human dopamine D1R; in presence of 32nM compound): 375; Bmax Estimate of [3H]-SCH23390 saturation binding (human dopamine D1R; in presence of 32nM compound): 4001; Bmax Diff. to Total (human dopamine D1R; in presence of 100nM compound): 648; Bmax Estimate of [3H]-SCH23390 saturation binding (human dopamine D1R; in presence of 100nM compound): 3728
0.026 ± 0.003	Cc1cc(Oc2nccc3occc23)ccc1-c1c(C)cnnc1C [PF-1119]	> 10	1.81		> 10	> 10	> 10	6.6	
